According to PMC11078990, “Identification and characterization of small molecule inhibitors of the LINE-1 retrotransposon endonuclease” (Nature Communications, 2024):
Where “and” joins values, the source holds several entries; their conditions need not be identical. Identical values can stand only once. Like-named read-outs stand apart in the source and are kept apart here.

Columns and labels:
[1] = test system: substrate oligonucleotide used in the EN activity assay; type: binding; design: key to Binding Detected? (Y/N): Binding Detected? (Y/N); Binding Detected? (Y/N)
HeLa Tet-On cells = settings: human
L1 retrotransposition = assay: HeLa dual-luciferase L1 retrotransposition assay; type: cell-based, human; settings: for L1 retrotransposition, average: average of 4 replicates
APE1 = biological target: T1, APE1 (Homo sapiens, UniProt P27695); assay: APE1 fluorescent oligonucleotide activity assay (abasic site substrate); type: biochemical; settings: for activity at 25 µM: read-out: APE1 activity (%)
T1 construct: purchased New England Biolabs (NEB) M0282S

[2] = biological target: L1 EN (LINE-1 retrotransposon endonuclease domain) (Homo sapiens, UniProt O00370, N5T); assay: Fluorescent oligonucleotide EN nicking activity assay; type: biochemical
L1 EN (LINE-1 retrotransposon endonuclease domain), sequence (O00370 1-239 N5T): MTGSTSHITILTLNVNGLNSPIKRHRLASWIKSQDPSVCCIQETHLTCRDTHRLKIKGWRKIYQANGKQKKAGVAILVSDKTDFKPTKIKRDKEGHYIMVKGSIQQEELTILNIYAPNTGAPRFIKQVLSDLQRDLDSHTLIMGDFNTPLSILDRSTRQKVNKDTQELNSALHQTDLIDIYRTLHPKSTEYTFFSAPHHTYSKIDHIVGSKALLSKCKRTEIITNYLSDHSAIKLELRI

[3] = read-out: EN activity, percent of no inhibitor control

Cc1cc(=O)oc2c3c(ccc12)O/C(=N/Nc1ccc([N+](=O)[O-])cc1[N+](=O)[O-])C3=O [AD5] was tested, and the “Binding Detected? (Y/N)” value [1] was “N”, the “PrestoBlue (viability), average” value (HeLa Tet-On cells) was 15.98 and the “Effect on L1 retrotransposition” value (L1 retrotransposition) was “did not significantly impact retrotransposition”. For the same compound, the “Luciferase (retrotransposition), average” value (L1 retrotransposition) was 7.139, the “Luciferase (retrotransposition), replicates” value (shortened to “Luciferase … replicates”) (L1 retrotransposition) was 5.447 and 9.3633 and 6.616 and 7.129 and the “APE1 percent activity, Replicate 1” value (APE1) was 111.351%. The “APE1 percent activity, Replicate 2” value (APE1) was 107.526%, the “APE1 percent activity, Replicate 3” value (APE1) was 109.094% and the “APE1 percent activity, average” value (APE1) was 109.324%. The activity at 25 µM (APE1) was 109 ± 1.9%, the “EN activity, percent of no inhibitor control” value ([2]; 0.5 µM) was 83.4432% and 74.5276% and the “EN activity, percent of no inhibitor control” value ([2]; 2 µM) was 70.978% and 73.9003%. For the same compound, the “EN activity, percent of no inhibitor control” value ([2]; 5 µM) was 74.0185% and 75.6649%, the “EN activity, percent of no inhibitor control” value ([2]; 10 µM) was 77.2953% and 59.874% and 46.95% and the “EN activity, percent of no inhibitor control” value ([2]; 25 µM) was 51.0006% and 46.7642%. For the same compound, the “EN activity, percent of no inhibitor control” value ([2]; 100 µM) was 9.806% and 12.2088%, the “EN activity, percent of no inhibitor control” value ([2]; 250 µM) was 10.849% and 15.1279% and the “EN activity, percent of no inhibitor control” value ([2]; 500 µM) was 8.917% and 12.6828%. It also gave a remaining activity at 0.5 µM [2, 3] of 82.5%, a remaining activity at 2 µM [2, 3] of 78.9% and a remaining activity at 5 µM [2, 3] of 74.7%. The remaining activity at 25 µM [2, 3] was 46.1%, the remaining activity at 100 µM [2, 3] was 7.29% and the remaining activity at 250 µM [2, 3] was 12%. It also gave a remaining activity at 500 µM [2, 3] of 9.9%.
With C[C@H]1C[C@H](C)CN(CCCNc2ccc(C(=O)Nc3ccc(C(F)(F)F)cc3)cc2[N+](=O)[O-])C1 [AD9] the “Binding Detected? (Y/N)” value [1] was “N”, the “PrestoBlue (viability), average” value (HeLa Tet-On cells; 48 h, 50 μM) was 17.51 and the “L1 retrotransposition, average” value (L1 retrotransposition; 0.2 μM inhibitor, Figure 4b concentration-dependent inhibition) was 1.898. The “L1 retrotransposition, average” value (L1 retrotransposition; 0.5 μM inhibitor, Figure 4b) was 2.458, the “L1 retrotransposition, average” value (L1 retrotransposition; 1 μM inhibitor, Figure 4b) was 2.133 and the “L1 retrotransposition, average” value (L1 retrotransposition; 5 μM inhibitor, Figure 4b) was 1.566. For the same compound, the “L1 retrotransposition, average” value (L1 retrotransposition; 10 μM inhibitor, Figure 4b) was 0.7154, the “L1 retrotransposition, average” value (L1 retrotransposition; 20 μM inhibitor, Figure 4b) was 1.222 and the “L1 retrotransposition, average” value (L1 retrotransposition; 35 μM inhibitor, Figure 4b) was 0.4788. The “Luciferase (retrotransposition), average” value (L1 retrotransposition; Figure 4a Graph 2, 50 μM, 0 μM average 9.679) was 2.116, the “Luciferase … replicates” value (L1 retrotransposition; Figure 4a Graph 2, 50 μM, Replicates 1-4, 0 μM average 9.679) was 3.949 and 1.344 and 2.584 and 0.5874 and the “Effect on L1 retrotransposition” value (L1 retrotransposition; HeLa cells) was “some activity in the retrotransposition assay”. The “Percent APE1 activity, average” value (APE1; 250 µM, Supplementary Fig. 6b, n=3) was 100.1%, the “Percent APE1 activity, replicates” value (APE1; 250 µM, Supplementary Fig. 6b, replicates 1-3) was 118.893% and 92.7882% and 88.5535% and the “APE1 percent activity, Replicate 1” value (APE1; compound at 25 μM, Replicate 1) was 119.501%. For the same compound, the “APE1 percent activity, Replicate 2” value (APE1; compound at 25 μM, Replicate 2) was 114.522%, the “APE1 percent activity, Replicate 3” value (APE1; compound at 25 μM, Replicate 3) was 113.798% and the “APE1 percent activity, average” value (APE1; compound at 25 μM, average of 3 replicates) was 115.94%. For the same compound, the activity at 25 µM (APE1; inhibitors at 25 μM, relative to 0 μM inhibitor control, mean ± s.d., 3 independent experiments) was 116 ± 3.1%, the “EN activity, percent of no inhibitor control” value ([2]; [Inhibitor] 2 μM, technical replicates 1-3, Fig. 2b source data, 2 µM) was 91.056% and 80.4005% and the remaining activity at 2 µM ([2]; [Inhibitor] 2 μM, technical replicates 1-3, Fig. 2b source data, read-out: EN activity, percent of no inhibitor control) was 100%. The “EN activity, percent of no inhibitor control” value ([2]; [Inhibitor] 10 μM, technical replicates 1-3, Fig. 2b source data, 10 µM) was 101.14% (2×) and 73.8761%, the “EN activity, percent of no inhibitor control” value ([2]; [Inhibitor] 25 μM, technical replicates 1-3, Fig. 2b source data, 25 µM) was 96.0191% and the remaining activity at 25 µM ([2]; [Inhibitor] 25 μM, technical replicates 1-3, Fig. 2b source data, read-out: EN activity, percent of no inhibitor control) was 109%. For the same compound, the “EN activity, percent of no inhibitor control” value ([2]; [Inhibitor] 50 μM, technical replicates 1-3, Fig. 2b source data, 50 µM) was 139.387% and 77.4751% and 117.995%, the “EN activity, percent of no inhibitor control” value ([2]; [Inhibitor] 100 μM, technical replicates 1-3, Fig. 2b source data, 100 µM) was 89.4903% and the remaining activity at 100 µM ([2]; [Inhibitor] 100 μM, technical replicates 1-3, Fig. 2b source data, read-out: EN activity, percent of no inhibitor control) was 85.7%. For the same compound, the “EN activity, percent of no inhibitor control” value ([2]; [Inhibitor] 250 μM, technical replicates 1-3, Fig. 2b source data, 250 µM) was 70.6219%, the remaining activity at 250 µM ([2]; [Inhibitor] 250 μM, technical replicates 1-3, Fig. 2b source data, read-out: EN activity, percent of no inhibitor control) was 83.4% and the “EN activity, percent of no inhibitor control” value ([2]; [Inhibitor] 500 μM, technical replicates 1-3, Fig. 2b source data, 500 µM) was 47.0918%. For the same compound, the remaining activity at 500 µM ([2]; [Inhibitor] 500 μM, technical replicates 1-3, Fig. 2b source data, read-out: EN activity, percent of no inhibitor control) was 45.2%, the “EN activity, percent of no inhibitor control” value ([2]; [Inhibitor] 1000 μM, technical replicates 1-3, Fig. 2b source data, 1000 µM) was 38.5425% and the remaining activity at 1000 µM ([2]; [Inhibitor] 1000 μM, technical replicates 1-3, Fig. 2b source data, read-out: EN activity, percent of no inhibitor control) was 31.3%. The “EN activity, percent of no inhibitor control” value ([2]; [Inhibitor] 2000 μM, technical replicates 1-3, Fig. 2b source data, 2000 µM) was 14.4137% and the remaining activity at 2000 µM ([2]; [Inhibitor] 2000 μM, technical replicates 1-3, Fig. 2b source data, read-out: EN activity, percent of no inhibitor control) was 28.7%.
For O=C1c2ccc(Oc3ccc4c(c3)C(=O)N(Nc3ccc([N+](=O)[O-])cc3[N+](=O)[O-])C4=O)cc2C(=O)N1Nc1ccc([N+](=O)[O-])cc1[N+](=O)[O-] [AD13], the “Binding Detected? (Y/N)” value [1] was “N”, the “PrestoBlue (viability), average” value (HeLa Tet-On cells) was 12.09 and the “Luciferase (retrotransposition), average” value (L1 retrotransposition) was 4.925. The “Luciferase … replicates” value (L1 retrotransposition) was 6.1144 and 4.934 and 4.878 and 3.774, the “APE1 percent activity, Replicate 1” value (APE1) was 97.407% and the “APE1 percent activity, Replicate 2” value (APE1) was 88.0071%. For the same compound, the “APE1 percent activity, Replicate 3” value (APE1) was 67.6438%, the “APE1 percent activity, average” value (APE1) was 84.3526% and the activity at 25 µM (APE1) was 84.4 ± 15.2%. The “EN activity, percent of no inhibitor control” value ([2]; 0.5 µM) was 119.788% and 111.52%, the “EN activity, percent of no inhibitor control” value ([2]; 10 µM) was 92.6481% and 80.1764% and the “EN activity, percent of no inhibitor control” value ([2]; 25 µM) was 33.9668% and 41.2844%. The “EN activity, percent of no inhibitor control” value ([2]; 50 µM) was 7.541% and 8.862% and 3.766%, the “EN activity, percent of no inhibitor control” value ([2]; 100 µM) was 1.558% and 1.832% and the “EN activity, percent of no inhibitor control” value ([2]; 250 µM) was 1.124% and 2.509% and 2.58%. For the same compound, the “EN activity, percent of no inhibitor control” value ([2]; 500 µM) was 0.9149% and 2.171% and 1.168%, the “EN activity, percent of no inhibitor control” value ([2]; 1000 µM) was 5.545% and 2.613% and 9.084% and the remaining activity at 0.5 µM [2, 3] was 114%. It also gave a remaining activity at 10 µM [2, 3] of 97.9%, a remaining activity at 25 µM [2, 3] of 25.1% and a remaining activity at 100 µM [2, 3] of 0.968%. For the same compound, the remaining activity at […] [2, 3] was 89.7%.
